Source: patent US7713969B2, “Compositions and methods for treatment of cancer” (ArQule, Inc., priority 2005, dated 2010)

Columns and labels:
MDA-MB-231 = test: Cell viability MTS assay; format: cell-based, human
Procedure: (§1) Cell viability was determined by measuring the activity of dehydrogenase enzymes in metabolically active cells using a tetrazolium compound, MTS. The assay was performed as described in Promega Technical Bulletin No. 169 (CellTiter 96 Aqueous Non-Radioactive Cell Proliferation Assay). Thirteen human cancer cell lines were assayed (see, e.g., Table 1). Cells were maintained at 37° C., 5% CO2. Adherent cells were maintained DMEM media (4.5 g/L glucose) supplemented with 15% heat-inactivated FBS, 10 mM L-glutamine, and 10 mM Hepes pH 7.5. Suspension cells were maintained in RPMI 1640 media, supplemented with 10% heat-inactivated FBS and 10 mM Hepes pH 7.5. Briefly, cells were seeded in 96-well plates as set forth in Table 1 and incubated for 16-24 hours. Candidate compounds were serially diluted in DMSO, further diluted in cell culture media, and then added to cells (final DMSO concentration of 0.33%). Cells were incubated in the presence of candidate compound for 72 hours. MTS stock solution (MTS 2 gm/L, PMS […] in PBS) was added to the cells (final concentration MTS […] and PMS 7.67 mg/L) and incubated for 4 hours. SDS was added to a final concentration of 1.4% and absorbance at 490 nm was measured within two hours using a platereader. The IC50 was defined as the concentration of compound that results in a 50% reduction in the number of viable cells as compwered to control wells treated with DMSO only (0.33%) and was calculated using non-linear regression analyswas. IC50 values were given in Table 2 for the compounds listed.

HT29 = test: Cell viability MTS assay; format: cell-based, human
Procedure: as §1

[1] = Homo sapiens, MDA-MB-231, 72 hours with compound
[2] = Homo sapiens, HT-29, 72 hours with compound

Row | Compound | IC50 (MDA-MB-231; 72 hours with compound) [µM] | IC50 (HT29; 72 hours with compound) [µM] | IC50 (MDA-MB-231; [1]) [µM] | IC50 (HT29; [2]) [µM]
1 | 3-(4-Benzoyloxyphenyl)-4-(5,6-dihydro-4H-pyrrolo[3,2,1-ij]quinolin-1-yl)-pyrrole-2,5-dione [Example 29] | > 100 | > 100 | – | –
2 | 3-(5,6-dihydro-4H-pyrrolo[3,2,1-ij]quinolin-1-yl)-4-(4-fluorophenyl)-1H-pyrrole-2,5-dione [Example 67] | – | 53.1 | – | –
3 | O=C1[C@@H](c2c[nH]c3ccccc23)[C@H](c2cn3c4c(cccc24)CCC3)C(=O)N1COP(=O)(O)O (racemic) [(±)-Phosphoric acid mono-[trans-3-(5,6-dihydro-4H-pyrrolo[3,2,1-ij]quinolin-1-yl)-4-(1H-indol-3-yl)-2,5-dioxo-pyrrolidin-1-ylmethyl]ester] | – | – | 5.89 | 4.45
4 | O=C1NC(=O)[C@@H](c2cn3c4c(cccc24)CCC3)[C@@H]1c1c[nH]c2ccc(-c3cccc4ccccc34)cc12 (racemic) [Example 37, (±)-Trans-3-(5,6-dihydro-4H-pyrrolo[3,2,1-ij]quinolin-1yl)-4-(5-(1-naphthyl)-1H-indol-3-yl)pyrrolidine-2,5-dione] | – | – | 43.4 | 37.4
5 | COc1ccc(-c2ccc3[nH]cc([C@@H]4C(=O)NC(=O)[C@H]4c4cn5c6c(cccc46)CCC5)c3c2)cc1 (racemic) [Example 38, (±)-Trans-3-(5,6-dihydro-4H-pyrrolo[3,2,1-ij]quinolin-1yl)-4-(5-(4-methoxyphenyl)-1H-indol-3-yl)pyrrolidine-2,5-dione] | – | – | 13.1 | 10.6
6 | Cc1cccc(-c2ccc3[nH]cc([C@@H]4C(=O)NC(=O)[C@H]4c4cn5c6c(cccc46)CCC5)c3c2)c1 (racemic) [Example 39, (±)-Trans-3-(5,6-dihydro-4H-pyrrolo[3,2,1-ij]quinolin-1yl)-4-(5-(3-methylphenyl)-1H-indol-3-yl)pyrrolidine-2,5-dione] | – | – | – | 10.5
7 | O=C1NC(=O)[C@@H](c2cn3c4c(cccc24)CCC3)[C@@H]1c1ccc(F)cc1Cl (racemic) [Example 40, (±)-Trans-3-(5,6-dihydro-4H-pyrrolo[3,2,1-ij]quinolin-1yl)-4-(2-chloro-4-fluorophenyl)pyrrolidine-2,5-dione] | – | – | – | 10.5
8 | O=C1NC(=O)[C@@H](c2cn3c4c(cccc24)CCC3)[C@@H]1c1c(Cl)cccc1Cl (racemic) [Example 41, (±)-Trans-3-(5,6-dihydro-4H-pyrrolo[3,2,1-ij]quinolin-1yl)-4-(2,6-dichlorophenyl)pyrrolidine-2,5-dione] | – | – | 7.63 | 4.65
9 | O=C1NC(=O)[C@@H](c2cn3c4c(cccc24)CCC3)[C@@H]1c1ccc(Br)cc1 (racemic) [Example 42, (±)-Trans-3-(5,6-dihydro-4H-pyrrolo[3,2,1-ij]quinolin-1yl)-4-(4-bromophenyl)pyrrolidine-2,5-dione] | – | – | 49.6 | 44.1
10 | O=C1NC(=O)[C@@H](c2cn3c4c(cccc24)CCC3)[C@@H]1c1ccc(Cl)cc1 (racemic) [Example 43, (±)-Trans-3-(5,6-dihydro-4H-pyrrolo[3,2,1-ij]quinolin-1yl)-4-(4-chlorophenyl)pyrrolidine-2,5-dione] | – | – | 54.5 | 48.7
11 | O=C1NC(=O)[C@@H](c2cn3c4c(cccc24)CCC3)[C@@H]1c1ccc(OC(F)(F)F)cc1 (racemic) [Example 44, (±)-Trans-3-(5,6-dihydro-4H-pyrrolo[3,2,1-ij]quinolin-1yl)-4-(4-trifluoromethoxyphenyl)pyrrolidine-2,5-dione] | – | – | 14.1 | 12.5
12 | O=C1NC(=O)[C@@H](c2cn3c4c(cccc24)CCC3)[C@@H]1c1ccsc1 (racemic) [Example 45, (±)-Trans-3-(5,6-dihydro-4H-pyrrolo[3,2,1-ij]quinolin-1yl)-4-(thiophen-3-yl)pyrrolidine-2,5-dione] | – | – | 42.7 | 27.6
13 | O=C1NC(=O)[C@@H](c2cn3c4c(cccc24)CCC3)[C@@H]1c1ccccc1F (racemic) [Example 46, (±)-Trans-3-(5,6-dihydro-4H-pyrrolo[3,2,1-ij]quinolin-1yl)-4-(2-fluorophenyl)pyrrolidine-2,5-dione] | – | – | > 100 | 4.76
14 | O=C1NC(=O)[C@@H](c2cn3c4c(cccc24)CCC3)[C@@H]1c1ccc(Cl)cc1Cl (racemic) [Example 48, (±)-Trans-3-(5,6-dihydro-4H-pyrrolo[3,2,1-ij]quinolin-1yl)-4-(2,4-dichlorophenyl)pyrrolidine-2,5-dione] | – | – | 14.8 | 8.39
15 | O=C1NC(=O)[C@@H](c2cn3c4c(cccc24)CCC3)[C@@H]1c1ccccc1 (racemic) [Example 49, (±)-Trans-3-(5,6-dihydro-4H-pyrrolo[3,2,1-ij]quinolin-1yl)-4-phenyl-pyrrolidine-2,5-dione] | – | – | – | 14.6
16 | CC(N)C(=O)OCN1C(=O)[C@@H](c2c[nH]c3ccccc23)[C@H](c2cn3c4c(cccc24)CCC3)C1=O (mixture of isomers) [Example 57, (±)-trans-2-Amino-propionic acid-3-(5,6-dihydro-4H-pyrrolo[3,2,1-ij]quinolin-1-yl)-4-(1H-indol-3-yl)-2,5-dioxo-pyrrolidin-1-yl methyl ester] | 3.14 | 2.9 | – | –
17 | NCC(=O)OCN1C(=O)[C@@H](c2c[nH]c3ccccc23)[C@H](c2cn3c4c(cccc24)CCC3)C1=O (racemic) [Example 58, (±)-trans-2-Amino-acetic acid-3-(5,6-dihydro-4H-pyrrolo[3,2,1-ij]quinolin-1-yl)-4-(1H-indol-3-yl)-2,5-dioxo-pyrrolidin-1-yl methyl ester] | 3.45 | 2.77 | – | –
18 | CN(C)CC(=O)OCN1C(=O)[C@@H](c2c[nH]c3ccccc23)[C@H](c2cn3c4c(cccc24)CCC3)C1=O (racemic) [Example 59, (±)-trans-2-dimethylamino-acetic acid-3-(5,6-dihydro-4H-pyrrolo[3,2,1-ij]quinolin-1-yl)-4-(1H-indol-3-yl)-2,5-dioxo-pyrrolidin-1-ylmethyl ester] | – | – | 4.47 | 3.74
19 | O=C(OCN1C(=O)[C@@H](c2c[nH]c3ccccc23)[C@H](c2cn3c4c(cccc24)CCC3)C1=O)c1ccncc1 (racemic) [Example 60, (±)-trans-Isonicotinic acid-3-(5,6-dihydro-4H-pyrrolo[3,2,1-ij]quinolin-1-yl)-4-(1H-indol-3-yl)-2,5-dioxo-pyrrolidin-1-ylmethyl ester] | – | – | 3.55 | 3.59
20 | O=C1NC(=O)[C@@H](c2cn3c4c(cccc24)CCC3)[C@@H]1c1ccc(F)cc1 (racemic) [Example 70, (±)-Trans-3-(5,6-dihydro-4H-pyrrolo[3,2,1-ij]quinolin-1-yl)-4-(4-fluorophenyl)pyrrolidine-2,5-dione] | – | – | 49.2 | –
21 | O=C1NC(=O)[C@@H](c2cn3c4c(cccc24)CCC3)[C@@H]1c1ccc(OCc2ccccc2)cc1 (racemic) [Example 71, (±)-Trans-3-[4-(benzyloxy)phenyl]-4-(5,6-dihydro-4H-pyrrolo[3,2,1-ij]quinolin-1-yl)pyrrolidine-2,5-dione] | – | – | 97.5 | 48.7
22 | O=C1NC(=O)[C@@H](c2cn3c4c(cccc24)CN(C(=O)OCc2ccccc2)CC3)[C@@H]1c1c[nH]c2ccccc12 (racemic) [Example 74, (±)-Trans-7-[4-(1H-indol-3-yl)-2,5-dioxo-pyrrolidin-3-yl]-3,4-dihydro-1H-[1,4]diazepino[6,7,1-hi]indole-2-carboxylic acid benzyl ester] | – | – | > 100 | 90.7
23 | O=C1NC(=O)[C@@H](c2cn3c4c(cccc24)CNCC3)[C@@H]1c1c[nH]c2ccccc12 (racemic) [Example 75, (±)-Trans-3-(1H-indol-3-yl)-4-(1,2,3,4-tetrahydro-[1,4]diazepino[6,7,1-hi]indol-7-yl)-pyrrolidine-2,5-dione] | – | – | > 100 | > 100
24 | O=C1[C@@H](c2c[nH]c3ccccc23)[C@H](c2cn3c4c(cccc24)CCC3)C(=O)N1COP(=O)(OCc1ccccc1)OCc1ccccc1 (relative stereo) [phosphoric acid dibenzyl ester trans-3-(5,6-dihydro-4H-pyrrolo[3,2,1-ij]quinolin-1-yl)-4-(1H-indol-3-yl)-2,5-dioxo-pyrrolidin-1-ylmethyl ester] | – | – | > 100 | 22.6
25 | O=C1NC(=O)C(c2cn3c4c(cccc24)CCC3)=C1c1ccccc1C(F)(F)F [Example 6, 3-(5,6-dihydro-4H-pyrrolo[3,2,1-ij]quinolin-1-yl)-4(2-trifluoromethyl-phenyl)-pyrrole-2,5-dione] | – | – | 61.2 | 62.7
26 | O=C1NC(=O)C(c2cn3c4c(cccc24)CCC3)=C1c1cccs1 [Example 7, 3-(5,6-Dihydro-4H-pyrrolo[3,2,1-ij]quinolin-1-yl)-4-thiophen-2-yl-pyrrole-2,5-dione] | – | – | > 100 | > 100
27 | O=C1NC(=O)C(c2cn3c4c(cccc24)CCC3)=C1c1ccc(F)cc1 [Example 67, 3-(5,6-dihydro-4H-pyrrolo[3,2,1-ij]quinolin-1-yl)-4-(4-fluorophenyl)-1H-pyrrole-2,5-dione] | – | – | 57 | –
28 | (±)-Trans-3-(5,6-dihydro-4H-pyrrolo[3,2,1-ij]quinolin-1-yl)-4-(4-fluorophenyl)pyrrolidine-2,5-dione [Example 70] | – | 26.2 | – | –
